These results are taken from ChEMBL document CHEMBL5226286, “The application of isatin-based multicomponent-reactions in the quest for new bioactive and druglike molecules” (Eur J Med Chem, 2021).

Experiment [1] concerns HeLa. In words: Antiproliferative activity against human HeLa cells. Format: functional, cell-based.
Experiment [2] has as its system MDA-MB-231. In words: cells. The experiment is classed as functional, cell-based. The settings on record: Homo sapiens.
Description: Antiproliferative activity against human MDA-MB-231 cells
For experiment [3], the system named is Staphylococcus aureus. In words: Antibacterial activity against Staphylococcus aureus ATCC 25923. Format: functional.
Experiment [4] relates to Bacillus pumilus. The experiment is described as follows: Antibacterial activity against Bacillus pumilus PTCC 1114. The experiment is classed as functional.
Experiment [5] has as its system Micrococcus luteus. In words: Antibacterial activity against Micrococcus luteus PTCC 1110. Format: functional.
In experiment [6] the test system is Escherichia coli. In words: Antimicrobial activity against Escherichia coli ATCC 25922. The experiment is classed as functional.
Experiment [7] concerns Klebsiella pneumoniae. The experiment is described as follows: Antibacterial activity against Klebsiella pneumoniae ATCC 29655. Format: functional.
In experiment [8] the test system is Streptococcus mutans. In words: Antibacterial activity against Streptococcus mutans PTCC 1601. The experiment is classed as functional.
Experiment [9] has as its system Staphylococcus epidermidis. In words: Antibacterial activity against Staphylococcus epidermidis ATCC 12228. Format: functional.
The test system of experiment [10] is Enterococcus faecalis. The experiment is described as follows: Antibacterial activity against Enterococcus faecalis ATCC 29737. Format: functional.
For experiment [11], the system named is Pseudomonas aeruginosa. In words: Antibacterial activity against Pseudomonas aeruginosa ATCC 85327. Format: functional.
For experiment [12], the system named is Bacillus subtilis. In words: Antibacterial activity against Bacillus subtilis ATCC 465. Format: functional.
For experiment [13], the system named is DU-145. The experiment is described as follows: Cytotoxicity against human DU-145 cells incubated for 48 hrs by MTT assay. The experiment is classed as functional, cell-based. The settings on record: DU-145, 48 h. In general terms: Tetrazolium dyes change colour on reduction, which living cells bring about.
The subject of experiment [14] is HeLa. The experiment is described as follows: Cytotoxicity against human HeLa cells incubated for 48 hrs by MTT assay. Format: functional, cell-based.
The test system of experiment [15] is A549. In words: Cytotoxicity against human A549 cells incubated for 48 hrs by MTT assay. The experiment is classed as functional, cell-based. The settings on record: A549, 48 h.
Experiment [16] relates to MCF7. The experiment is described as follows: Cytotoxicity against human MCF7 cells incubated for 48 hrs by MTT assay. The experiment is classed as functional, cell-based. The settings on record: MCF7, 48 h.
In experiment [17] the test system is HepG2. The experiment is described as follows: cells. Format: functional, cell-based. Conditions: Homo sapiens.
Description: Antiproliferative activity against human HepG2 cells
Experiment [18] relates to Escherichia coli. The experiment is described as follows: Antibacterial activity against Escherichia coli incubated for 24 to 48 hrs by agar diffusion well method. The experiment is classed as functional. The settings on record: time 24-48 hrs.
The subject of experiment [19] is Aspergillus fumigatus. The experiment is described as follows: Antifungal activity against Aspergillus fumigatus RCMB 02568. Format: functional.
The test system of experiment [20] is Geotrichum candidum. In words: Antifungal activity against Geotrichum candidum RCMB 05097. Format: functional.
Experiment [21] relates to Streptococcus pneumoniae. In words: Antibacterial activity against Streptococcus pneumoniae incubated for 24 to 48 hrs by agar diffusion well method. The experiment is classed as functional. Conditions: time 24-48 hrs.
Experiment [22] concerns Syncephalastrum racemosum. The experiment is described as follows: Antifungal activity against Syncephalastrum racemosum RCMB 05922. Format: functional.
Experiment [23] concerns Candida albicans. The experiment is described as follows: Antifungal activity against Candida albicans RCMB 05036. The experiment is classed as functional.
Experiment [24] deals with Pseudomonas aeruginosa. In words: Antibacterial activity against Pseudomonas aeruginosa incubated for 24 to 48 hrs by agar diffusion well method. Format: functional. The settings on record: time 24-48 hrs. For orientation: In agar diffusion tests the substance spreads into inoculated agar from a disc or well.
The subject of experiment [25] is Bacillus subtilis. The experiment is described as follows: Antibacterial activity against Bacillus subtilis incubated for 24 to 48 hrs by agar diffusion well method. The experiment is classed as functional. The settings on record: time 24-48 hrs.
For experiment [26], the system named is MCF7. In words: Cytotoxicity against human MCF7 cells. Format: functional, cell-based.
The test system of experiment [27] is A549. In words: Antiproliferative activity against human A549 cells. Format: functional, cell-based.
Experiment [28] relates to Staphylococcus aureus. In words: microbe, parasite or virus in culture.
The subject of experiment [29] is Bacillus subtilis. In words: Antibacterial activity against Bacillus subtilis. Format: functional.
In experiment [30] the test system is Aspergillus niger. In words: Antifungal activity against Aspergillus niger. Format: functional.
Experiment [31] in a line: Antioxidant activity assessed as DPPH radical scavenging activity at 1 mg/ml relative to control. Format: functional. Background: Loss of DPPH colour is used to gauge radical scavenging.
The test system of experiment [32] is Aspergillus flavus. In words: Antifungal activity against Aspergillus flavus. The experiment is classed as functional.

Values after ≈ are worked out from the molar mass of the structure shown. Active and inactive are the calls of the source. The calls are words filed in the database; no cut-off is given here.

Take `N#CC1=C(N)Oc2c(ccc3[nH]c4ccccc4c23)C12C(=O)N(Cc1cn(Cc3ccc(C(F)(F)F)cc3)nn1)c1ccccc12` (configuration not stated): the IC50 is 3.5 µM in experiment [1] and 61.9 µM in experiment [2].
Regarding `O=C1c2ccccc2NC2(C(=O)Nc3ccc([N+](=O)[O-])cc32)N1Nc1ccccc1` (configuration not stated), the MIC in [3] was 4 µg/mL (≈ 9.97 µM); in [4], 4 µg/mL (≈ 9.97 µM); in experiment [5] it was 8 µg/mL (≈ 19.9 µM); in experiment [6] it was 4 µg/mL (≈ 9.97 µM); in [7], 8 µg/mL (≈ 19.9 µM); in [8], < 2 µg/mL. Further, the MIC in experiment [9] came out at 4 µg/mL (≈ 9.97 µM); in experiment [10] it was 16 µg/mL (≈ 39.9 µM); in experiment [11] it was 32 µg/mL (≈ 79.7 µM); in [12], 4 µg/mL (≈ 9.97 µM).
Take `O=C1OCC2=C1C1(Nc3ccc(Cl)cc3N2)C(=O)Nc2ccccc21` (configuration not stated): the IC50 in experiment [13] is 1700 nM; in experiment [14], 5.4 µM; in [15] it was 2900 nM; in experiment [16] it was 9.5 µM.
In experiment [17], `O=C1C(=O)c2ccccc2C2=C1C1(C(=O)Nc3ccc(F)cc31)N1NN=NC1=N2` (configuration not stated) had an IC50 of 2900 nM.
In the case of `CCOC(=O)N1C/C(=C\c2ccc([N+](=O)[O-])cc2)C(=O)[C@@]2(C1)[C@H](c1ccc([N+](=O)[O-])cc1)[C@H]1CCCN1[C@]21C(=O)Nc2ccccc21`, the MIC in [18] is 15.6 µg/mL (≈ 24.5 µM); in experiment [19], 1.95 µg/mL (≈ 3.06 µM); in experiment [20], 0.12 µg/mL (≈ 0.188 µM); in experiment [21], 1.95 µg/mL (≈ 3.06 µM); in experiment [22], 0.49 µg/mL (≈ 0.768 µM); in [25] it was 0.06 µg/mL (≈ 0.0941 µM). The MIC result in experiment [23] and in experiment [24] was “inactive” in each case.
Consider `N#CC1=C(N)Oc2c(ccc3[nH]c4ccccc4c23)C12C(=O)N(Cc1cn(Cc3ccc([N+](=O)[O-])cc3)nn1)c1ccccc12` (configuration not stated), for which the IC50 in experiment [1] amounted to 6.3 µM; in experiment [2] it was 51.2 µM.
Take `CCOC(=O)C1=C(C(=O)OCC)C2(NC1(C(=O)OCC)C(=O)OCC)C(=O)N(C)c1ccc(C)cc12` (configuration not stated): the IC50 in experiment [26] came out at 20.8 µM.
Turning to `CCOC(=O)N1C/C(=C\c2ccc(F)cc2F)C(=O)[C@@]2(C1)[C@H](c1ccc(F)cc1F)[C@H]1CCCN1[C@]21C(=O)Nc2ccccc21`, the MIC in [18] was 1.95 µg/mL (≈ 3.15 µM); in experiment [19] it was 7.81 µg/mL (≈ 12.6 µM); in experiment [20], 0.03 µg/mL (≈ 0.0484 µM); in experiment [21] it was 0.015 µg/mL (≈ 0.0242 µM); in experiment [22], 1.95 µg/mL (≈ 3.15 µM); in experiment [25], 0.015 µg/mL (≈ 0.0242 µM). For the same compound, the MIC entry in experiment [23] and in experiment [24] was “inactive” in each case.
`Cc1ccc2c(c1)C1(C(=O)N2)N2CSCC2C(c2ncc[nH]2)C1(C#N)C(=O)c1c[nH]c2ccccc12` (configuration not stated) returned an IC50 in [27] of 66.3 µM.
For `Cc1nn(-c2ccccc2)c2c1C1(C(=O)Nc3ccc(Br)cc31)c1c(C)nn(-c3ccccc3)c1O2`, the MIC in [28] was 64 µg/mL (≈ 119 µM); in experiment [29], 256 µg/mL (≈ 475 µM).
Take `COc1ccc2[nH]cc(C(=O)C3(C#N)C(c4ncc[nH]4)CN(C)C34C(=O)Nc3ccccc34)c2c1` (configuration not stated): in experiment [27], it took 66.3 µM to reach half-maximal inhibition (IC50).
Turning to `O=C(c1ccc(F)cc1)C1C(c2ccc(Cl)cc2)C(CO)NC12C(=O)Nc1ccccc12` (configuration not stated), the MIC in experiment [30] and in experiment [32] was 20 µg/mL (≈ 44.4 µM) each time. Besides, in experiment [31], the Activity worked out at 88.1%.
Consider `O=C(c1ccc(F)cc1)C1C(c2ccc(Br)cc2)C(CO)NC12C(=O)Nc1ccccc12` (configuration not stated), for which the values for the MIC in experiment [30] and in experiment [32] were 20 µg/mL (≈ 40.4 µM) and 30 µg/mL (≈ 60.6 µM), respectively. Also, in [31], the Activity is 87.4%.
Consider `CC(C)CC1NC2(C(=O)Nc3ccccc32)C(C(=O)c2ccc(F)cc2)C1c1ccc(Br)cc1` (configuration not stated), for which the MIC in [30] amounted to 30 µg/mL (≈ 57.5 µM); in experiment [32], 20 µg/mL (≈ 38.4 µM).
In the case of `O=C1OCC2=C1C1(Nc3ccccc3N2)C(=O)N(Cc2ccccc2)c2ccccc21` (configuration not stated), the IC50 in experiment [13] was 1100 nM; in [14], 2.3 µM; in experiment [15], 1300 nM; in experiment [16] it was 2.2 µM.
`CCOC(=O)N1C/C(=C\c2ccc(Cl)cc2)C(=O)[C@@]2(C1)[C@H](c1ccc(Cl)cc1)CN(C)[C@]21C(=O)Nc2ccccc21`: the MIC in experiment [18] stood at 1.95 µg/mL (≈ 3.3 µM); in experiment [19], 0.015 µg/mL (≈ 0.0254 µM); in experiment [20], 0.015 µg/mL (≈ 0.0254 µM); in experiment [21], 0.12 µg/mL (≈ 0.203 µM); in experiment [22], 1.95 µg/mL (≈ 3.3 µM); in [23], 0.06 µg/mL (≈ 0.102 µM). The MIC came out at 15.6 µg/mL (≈ 26.5 µM) in [24] and 0.015 µg/mL (≈ 0.0254 µM) in experiment [25].
Take `CC(C)CC1NC2(C(=O)Nc3ccccc32)C(C(=O)c2ccc(F)cc2)C1c1ccc(Cl)cc1` (configuration not stated): the MIC in [30] and in experiment [32] was 20 µg/mL (≈ 41.9 µM) each time.

Usually IC50 stands for the concentration at which inhibition is half-maximal. Low values mean greater potency in that assay, high ones weaker potency in that assay.
